These are literature values, as cited in article PMC7395068, “The evolution of strategies to minimise the risk of human drug-induced liver injury (DILI) in drug discovery and development” (Archives of Toxicology, 2020).

Each structure is given as a SMILES string. Like-named read-outs stand apart in the source and are kept apart here.

For one series, the system named is human hepatocytes. The conditions noted are these: In vitro Assay; ref Xu 2008; cited from earlier work.
Series [1] concerns HepG2 cells. The conditions noted are these: cited from earlier work.
The conditions of series [2]: cited from earlier work.
For series [3], the system named is THLE-Null and THLE-3A4 cells. The conditions noted are these: In vitro Assay; ref Gustafsson 2014; cited from earlier work.
The subject of another series is Upcyte human hepatocytes. Conditions: In vitro Assay; ref Tolosa 2019; cited from earlier work.
For series [4], the system named is HepG2 cells, primary human hepatocytes. Conditions: In vitro Assay; ref Garside 2014; cited from earlier work.
Series [5] has as its system rBsep. Conditions: In vitro Assay; ref Dawson 2012; cited from earlier work.
Series [6] has as its system HepG2 cells. The conditions noted are these: In vitro Assay; ref O'Brien 2006; cited from earlier work.
The conditions of series [7]: ref Chen 2016; cited from earlier work.
For series [8], the system named is rBsep. Further details: method as in Dawson 2012. Conditions: In vitro Assay; ref Dawson 2012; cited from earlier work.
Series [9] has as its system HepG2 cells. The conditions noted are these: In vitro Assay; ref Persson 2013; cited from earlier work.
The subject of a further series is PHH spheroids. The conditions noted are these: In vitro Assay; ref Vorrink 2018; cited from earlier work.
For series [10], the system named is THLE or HepG2 cells, isolated mitochondria, BSEP. The conditions noted are these: In vitro Assay; ref Aleo 2019; cited from earlier work.

For `CN1CCC(=C2c3ccccc3CC(=O)c3sccc32)CC1` [ketotifen, reference compound], the “Structural based (HCI)” value was “-VE” with human hepatocytes; “+VE” in the series on HepG2 cells [1] (In vitro Assay, ref Tolosa 2012); “-VE” in the series on HepG2 cells [6]. The “DILI in vitro assay prediction, Tolosa (2012)” value in the series with HepG2 cells [1] (Structural based (HCI), HepG2, ref Tolosa et al. 2012) is “false-positive”. Moreover, the “In vivo DILI” value in series [2] (ref Dawson 2012) is given as “-VE”; in series [2] (ref Garside 2014), “+VE”; in series [2] (ref Gustafsson 2014) it was “+VE”; in [2] (ref O'Brien 2006), “-VE”; in [2] (ref Tolosa 2012), “-VE”; in series [2] (ref Tolosa 2019), “+VE”. Further, the “In vivo DILI” value in series [2] (ref Xu 2008) is recorded as “-VE”. In addition, the THLE-Null entry in series [3] is “-VE”. For the same molecule, the THLE-Null/3A4 result in [3] is listed as “-VE”. For the same molecule, in the series with Upcyte human hepatocytes, the “Upcytes multi donor assay 14day data” value is listed as “+VE”. For the same molecule, in series [4], the “Cluster 1-6 +VE Assay” value is “+VE”. Further, the “Inhibition of rBsep cutoff<1& cmax u>.2” value with rBsep [5] is on record as “-VE”. The “Inhibition of rBsep cutoff<3” value with rBsep [5] was “-VE”.
As to `Cc1onc(-c2c(Cl)cccc2Cl)c1C(=O)N[C@@H]1C(=O)N2[C@@H]1SC(C)(C)[C@@H]2C(=O)O` [dicloxacillin], in series [7], the “DILI +VE (5-8), DILI -VE (-4)” value is on record as “+VE” and the DILI severity category result was “vLess-DILI-Concern”. Besides, in the series with rBsep [8], the “Inhibition of rBsep cutoff<1& cmax u>.2” value was “-VE” and the “Inhibition of rBsep cutoff<3” value is “+VE”. The “In vivo DILI” value in series [2] (ref Dawson 2012) is reported as “+VE”. For the same molecule, the “In vivo DILI” value in [2] (ref Garside 2014) is recorded as “+VE”. Also, the “In vivo DILI” value in series [2] (ref Gustafsson 2014) is “+VE”. In addition, in series [3], the THLE-Null entry is on record as “-VE” and the THLE-Null/3A4 entry was “-VE”. Also, the “Cluster 1-6 +VE Assay” value in series [4] is given as “+VE”.
For the molecule `CC(C)NCC(O)c1ccc(O)c(O)c1` (stereo not drawn) [isoproterenol], the “Structural based (HCI)” value with human hepatocytes, in the series on HepG2 cells [9] and in the series with HepG2 cells [6] was “-VE” in each case. In series [7], the “DILI +VE (5-8), DILI -VE (-4)” value is “-VE”. In series [7], the DILI severity category result is reported as “vNo-DILI-Concern”. Moreover, in the series on HepG2 cells [9], the Cluser analysis result was “-VE”. Moreover, the “In vivo DILI” value in series [2] (ref Aleo 2019), in series [2] (ref Dawson 2012), in [2] (ref Garside 2014), in series [2] (ref Gustafsson 2014), in series [2] (ref O'Brien 2006) and in series [2] (ref Persson 2013) was “-VE” each time. Moreover, the “In vivo DILI” value in series [2] (ref Tolosa 2019), in [2] (ref Vorrink 2018) and in [2] (ref Xu 2008) was “-VE” in each case. Further, the THLE-Null result in series [3] is “-VE”. Further, the THLE-Null/3A4 entry in series [3] is “-VE”. Besides, the “hLiMTs ATP <20 x Cmax” value with PHH spheroids is on record as “-VE”. For the same molecule, in [10], the “Partition Hybrid HRM Score” value is reported as “-VE”. The “Ro2 Hybrid HRM Score” value in series [10] is on record as “-VE”. The “Upcytes multi donor assay 14day data” value with Upcyte human hepatocytes is given as “-VE”. Besides, the “Cluster 1-6 +VE Assay” value in series [4] is “+VE”. In the series on rBsep [5], the “Inhibition of rBsep cutoff<1& cmax u>.2” value is on record as “-VE”. Further, the “Inhibition of rBsep cutoff<3” value with rBsep [5] is given as “-VE”.
